Target: T1, KRas-G12D (Homo sapiens, UniProt P01116, G12D)
T1 construct: insert the HiBiT tag onto the N-terminus of one or more of the endogenous KRas alleles; host or cells: AsPC-1 HiBiT-KRasG12D knock-in clone (one tagged allele, two untagged KRasG12D alleles)
Test: HiBiT Degradation Assay (G12D), AsPC-1 HiBiT-KRasG12D cells, 24 hr
Type: cell-based
Settings: for Dmax: ASPC1, AsPC-1 cells, maximum degradation observed; for DC50: AsPC-1 cells
Procedure, shortened: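 Degradation was read after 24 hr compound exposure (0.5% DMSO, 37° C) by Nano-Glo HiBiT lytic luminescence in AsPC-1 cells carrying a HiBiT tag on one of three KRasG12D alleles. Signal relative to DMSO gave DC50 and Dmax by 4-parameter fit; alamar blue fluorescence monitored cytotoxicity.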

T1 sequence (P01116 1-188 isoform P01116-2 G12D): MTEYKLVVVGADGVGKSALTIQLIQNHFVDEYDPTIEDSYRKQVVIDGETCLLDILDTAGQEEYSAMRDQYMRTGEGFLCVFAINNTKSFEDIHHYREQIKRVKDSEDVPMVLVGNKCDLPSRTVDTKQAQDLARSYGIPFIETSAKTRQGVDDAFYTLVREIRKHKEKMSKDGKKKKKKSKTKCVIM

Row | SMILES | Dmax | DC50
1 | C#Cc1c(F)ccc2cc(O)cc(-c3ncc4c(N5CC6CCC(C5)N6)nc(OCCN5CCC(CN6CCN(CC7CCN(c8ccc9c(c8F)CN(C8CCC(=O)NC8=O)C9=O)CC7)C(C)(C)C6)CC5)nc4c3F)c12 (stereo not shown) [Compound 169, 3-{5-[4-({4-[(1-{2-[(4-{3,8-diazabicyclo[3.2.1]octan-3-yl}-7-(8-ethynyl-7-fluoro-3-hydroxynaphthalen-1-yl)-8-fluoropyrido[4,3-d]pyrimidin-2-yl)oxy]ethyl}piperidin-4-yl)methyl]-2,2-dimethylpiperazin-1-yl}methyl)piperidin-1-yl]-4-fluoro-1-oxo-2,3-dihydro-1H-isoindol-2-yl}piperidine-2,6-dione] | > 70% | < 5.1 µM
2 | C#Cc1c(F)ccc2cc(O)cc(-c3ncc4c(N5CC6CCC(C5)N6)nc(OCCN5CCC(CN6CCC(CC7CCN(c8cc(C)c9c(c8F)CN(C8CCC(=O)NC8=O)C9=O)CC7)CC6)CC5)nc4c3F)c12 (stereo not shown) [Compound 170, 3-{5-[4-({1-[(1-{2-[(4-{3,8-diazabicyclo[3.2.1]octan-3-yl}-7-(8-ethynyl-7-fluoro-3-hydroxynaphthalen-1-yl)-8-fluoropyrido[4,3-d]pyrimidin-2-yl)oxy]ethyl}piperidin-4-yl)methyl]piperidin-4-yl}methyl)piperidin-1-yl]-4-fluoro-7-methyl-1-oxo-2,3-dihydro-1H-isoindol-2-yl}piperidine-2,6-dione] | > 70% | < 5.1 µM
3 | CCc1c(F)ccc2cc(O)cc(-c3ncc4c(N5CC6CCC(C5)N6)nc(OCCN5CCC6(CC5)CCN(CC5CCN(c7ccc8c(c7)n(C)c(=O)n8C7CCC(=O)NC7=O)CC5)CC6)nc4c3F)c12 (stereo not shown) [Compound 171, 3-(5-{4-[(9-{2-[(4-{3,8-diazabicyclo[3.2.1]octan-3-yl}-7-(8-ethyl-7-fluoro-3-hydroxynaphthalen-1-yl)-8-fluoropyrido[4,3-d]pyrimidin-2-yl)oxy]ethyl}-3,9-diazaspiro[5.5]undecan-3-yl)methyl]piperidin-1-yl}-3-methyl-2-oxo-2,3-dihydro-1H-1,3-benzodiazol-1-yl)piperidine-2,6-dione] | > 70% | < 5.1 µM
4 | CCc1c(F)ccc2cc(O)cc(-c3ncc4c(N5CC6CCC(C5)N6)nc(OCCN5CCC(CC6CCN(CC7CCN(c8cccc9c8n(C)c(=O)n9C8CCC(=O)NC8=O)CC7)CC6)CC5)nc4c3F)c12 (stereo not shown) [Compound 172, 3-{4-[4-({4-[(1-{2-[(4-{3,8-diazabicyclo[3.2.1]octan-3-yl}-7-(8-ethyl-7-fluoro-3-hydroxynaphthalen-1-yl)-8-fluoropyrido[4,3-d]pyrimidin-2-yl)oxy]ethyl}piperidin-4-yl)methyl]piperidin-1-yl}methyl)piperidin-1-yl]-3-methyl-2-oxo-2,3-dihydro-1H-1,3-benzodiazol-1-yl}piperidine-2,6-dione] | > 70% | < 5.1 µM
5 | C#Cc1c(F)ccc2cc(O)cc(-c3ncc4c(N5CC6CCC(C5)N6)nc(OCCN5CCN(CC6CCN(CC7CCN(c8ccc9c(c8)n(C)c(=O)n9C8CCC(=O)NC8=O)CC7)CC6)CC5)nc4c3F)c12 (stereo not shown) [Compound 173, 3-{5-[4-({4-[(4-{2-[(4-{3,8-diazabicyclo[3.2.1]octan-3-yl}-7-(8-ethynyl-7-fluoro-3-hydroxynaphthalen-1-yl)-8-fluoropyrido[4,3-d]pyrimidin-2-yl)oxy]ethyl}piperazin-1-yl)methyl]piperidin-1-yl}methyl)piperidin-1-yl]-3-methyl-2-oxo-2,3-dihydro-1H-1,3-benzodiazol-1-yl}piperidine-2,6-dione] | > 70% | < 5.1 µM
